Key:
[1] = DPPH free radical scavenging (antioxidant activity); details: 100 μg/mL compound in 3 mL 0.004% DPPH, 520 nm after 30 min; mean of three replicates ±SD
Description: The antioxidant activity was measured based on the scavenging activity of the stable DPPH free radical. 100 μg/mL of the twenty-five sulindac derivative compounds were added to 3 mL 0.004% DPPH solution. Methanol was added to 3 mL 0.004% DPPH solution for the control sample. Absorbance was determined at 520 nm after 30 min. Butylated hydroxytoluene (BHT) was used as a reference drug. The percent inhibition was calculated by the equation:
[formula] where At is the absorbance of the compound and A0 is the absorbance of the control.

Structure (SMILES) | Scavenging Effect [1] [%] | melting point [°C]
CCOc1cc(/C=N\NC(=O)CC2=C(C)/C(=C/c3ccc([S+](C)[O-])cc3)c3ccc(F)cc32)ccc1O (stereo not drawn) [Compound 20, N′-(3-ethoxy-4-hydroxybenzylidene)-2-((1Z)-1-(4-(methylsulfinyl)benzylidene)-5-fluoro-2-methyl-1H-inden-3-yl)acetohydrazide] | 35.50 ± 9.05 | 193 to 195
CC1=C(CC(=O)N/N=C\c2ccccc2[N+](=O)[O-])c2cc(F)ccc2/C1=C\c1ccc([S+](C)[O-])cc1 (stereo not drawn) [Compound 1, N′-(2-nitrobenzylidene)-2-((1Z)-1-(4-(methylsulfinyl)benzylidene)-5-fluoro-2-methyl-1H-inden-3-yl)acetohydrazide] | 18.53 ± 4.86 | 148 to 150
CC1=C(CC(=O)N/N=C\c2ccc(O)cc2)c2cc(F)ccc2/C1=C\c1ccc([S+](C)[O-])cc1 (stereo not drawn) [Compound 11, N′-(4-hydroxybenzylidene)-2-((1Z)-1-(4-(methylsulfinyl)benzylidene)-5-fluoro-2-methyl-1H-inden-3-yl)acetohydrazide] | 45.06 ± 22.57 | –
CC1=C(CC(=O)N/N=C\c2cccc(O)c2O)c2cc(F)ccc2/C1=C\c1ccc([S+](C)[O-])cc1 (stereo not drawn) [Compound 23, N′-(2,3-dihydroxybenzylidene)-2-((1Z)-1-(4-(methylsulfinyl)benzylidene)-5-fluoro-2-methyl-1H-inden-3-yl)acetohydrazide] | 33.10 ± 8.41 | –
CCOc1ccc(/C=N\NC(=O)CC2=C(C)/C(=C/c3ccc([S+](C)[O-])cc3)c3ccc(F)cc32)cc1OC (stereo not drawn) [Compound 18, N′-(3-methoxy-4-ethoxybenzylidene)-2-((1Z)-1-(4-(methylsulfinyl)benzylidene)-5-fluoro-2-methyl-1H-inden-3-yl)acetohydrazide] | – | 158 to 160
COc1cccc(/C=N\NC(=O)CC2=C(C)/C(=C/c3ccc([S+](C)[O-])cc3)c3ccc(F)cc32)c1 (stereo not drawn) [Compound 6] | 71.03 ± 5.31 | –
COc1cc(OC)c(/C=N\NC(=O)CC2=C(C)/C(=C/c3ccc([S+](C)[O-])cc3)c3ccc(F)cc32)c(OC)c1 (stereo not drawn) [Compound 16, N′-(2,4,6-timethoxybenzylidene)-2-((1Z)-1-(4-(methylsulfinyl)benzylidene)-5-fluoro-2-methyl-1H-inden-3-yl)acetohydrazide] | 30.80 ± 2.50 | 193 to 195
CC1=C(CC(=O)N/N=C\c2cccc([N+](=O)[O-])c2)c2cc(F)ccc2/C1=C\c1ccc([S+](C)[O-])cc1 (stereo not drawn) [Compound 7] | 49.36 ± 5.57 | 165 to 167
COc1cccc(/C=N\NC(=O)CC2=C(C)/C(=C/c3ccc([S+](C)[O-])cc3)c3ccc(F)cc32)c1OC (stereo not drawn) [Compound 14, N′-(2,3-dimethoxybenzylidene)-2-((1Z)-1-(4-(methylsulfinyl)benzylidene)-5-fluoro-2-methyl-1H-inden-3-yl)acetohydrazide] | 62.93 ± 6.72 | 203 to 205
Cc1cc(C(C)(C)C)c(O)c(C(C)(C)C)c1 [BHT, Butylated hydroxytoluene, reference compound] | 90.6 ± 3.83 | –
COc1ccc(/C=N\NC(=O)CC2=C(C)/C(=C/c3ccc([S+](C)[O-])cc3)c3ccc(F)cc32)cc1O (stereo not drawn) [Compound 22, N′-(3-hydroxy-4-methoxybenzylidene)-2-((1Z)-1-(4-(methylsulfinyl)benzylidene)-5-fluoro-2-methyl-1H-inden-3-yl)acetohydrazide] | 51.40 ± 16.66 | 208 to 210
CC1=C(CC(=O)N/N=C\c2ccc([N+](=O)[O-])cc2)c2cc(F)ccc2/C1=C\c1ccc([S+](C)[O-])cc1 (stereo not drawn) [Compound 2, N′-(4-nitrobenzylidene)-2-((1Z)-1-(4-(methylsulfinyl)benzylidene)-5-fluoro-2-methyl-1H-inden-3-yl)acetohydrazide] | 19.26 ± 5.32 | 220 to 222
COc1ccc(/C=N\NC(=O)CC2=C(C)/C(=C/c3ccc([S+](C)[O-])cc3)c3ccc(F)cc32)cc1OC (stereo not drawn) [Compound 15, N′-(3,4-dimethoxybenzylidene)-2-((1Z)-1-(4-(methylsulfinyl)benzylidene)-5-fluoro-2-methyl-1H-inden-3-yl)acetohydrazide] | 40.60 ± 14.40 | 230 to 232
CC1=C(CC(=O)N/N=C\c2cccc(O)c2)c2cc(F)ccc2/C1=C\c1ccc([S+](C)[O-])cc1 (stereo not drawn) [Compound 5] | 42.20 ± 13.20 | –
COc1ccccc1/C=N\NC(=O)CC1=C(C)/C(=C/c2ccc([S+](C)[O-])cc2)c2ccc(F)cc21 (stereo not drawn) [Compound 12, N′-(2-methoxybenzylidene)-2-((1Z)-1-(4-(methylsulfinyl)benzylidene)-5-fluoro-2-methyl-1H-inden-3-yl) acetohydrazide] | 39.73 ± 15.65 | –
COc1ccc(/C=N\NC(=O)CC2=C(C)/C(=C/c3ccc([S+](C)[O-])cc3)c3ccc(F)cc32)c(OC)c1OC (stereo not drawn) [Compound 17, N′-(2,3,4-timethoxybenzylidene)-2-((1Z)-1-(4-(methylsulfinyl)benzylidene)-5-fluoro-2-methyl-1H-inden-3-yl)acetohydrazide] | 63.56 ± 0.47 | 185 to 187
COc1cc(/C=N\NC(=O)CC2=C(C)/C(=C/c3ccc([S+](C)[O-])cc3)c3ccc(F)cc32)cc(OC)c1O (stereo not drawn) [Compound 19, N′-(3,5-dimethoxy-4-hydroxybenzylidene)-2-((1Z)-1-(4-(methylsulfinyl)benzylidene)-5-fluoro-2-methyl-1H-inden-3-yl)acetohydrazide] | – | 218 to 220
COc1cccc(/C=N\NC(=O)CC2=C(C)/C(=C/c3ccc([S+](C)[O-])cc3)c3ccc(F)cc32)c1O (stereo not drawn) [Compound 24] | 27.66 ± 2.12 | 210 to 212
COc1cc(OC)c(OC)cc1/C=N\NC(=O)CC1=C(C)/C(=C/c2ccc([S+](C)[O-])cc2)c2ccc(F)cc21 (stereo not drawn) [Compound 9] | 78.97 ± 9.36 | 233 to 235
CC1=C(CC(=O)N/N=C\c2ccc(Cl)cc2)c2cc(F)ccc2/C1=C\c1ccc([S+](C)[O-])cc1 (stereo not drawn) [Compound 4, N′-(4-chlorobenzylidene)-2-((1Z)-1-(4-(methylsulfinyl)benzylidene)-5-fluoro-2-methyl-1H-inden-3-yl)acetohydrazide] | 39.86 ± 10.80 | 228 to 230
COc1cc(/C=N\NC(=O)CC2=C(C)/C(=C/c3ccc([S+](C)[O-])cc3)c3ccc(F)cc32)cc(OC)c1OC (stereo not drawn) [Compound 10, N′-(3,4,5-trimethoxybenzylidene)-2-((1Z)-1-(4-(methylsulfinyl)benzylidene)-5-fluoro-2-methyl-1H-inden-3-yl)acetohydrazide] | 42.33 ± 18.38 | 165 to 167
CC1=C(CC(=O)N/N=C\c2cc(O)ccc2O)c2cc(F)ccc2/C1=C\c1ccc([S+](C)[O-])cc1 (stereo not drawn) [Compound 21, N′-(2,5-dihydroxybenzylidene)-2-((1Z)-1-(4-(methylsulfinyl)benzylidene)-5-fluoro-2-methyl-1H-inden-3-yl)acetohydrazide] | 38.10 ± 10.92 | 180 to 182
CC1=C(CC(=O)N/N=C\c2ccc(O)c(O)c2O)c2cc(F)ccc2/C1=C\c1ccc([S+](C)[O-])cc1 (stereo not drawn) [Compound 25, N′-(2,3,4-trihydroxybenzylidene)-2-((1Z)-1-(4-(methylsulfinyl)benzylidene)-5-fluoro-2-methyl-1H-inden-3-yl)acetohydrazide] | 30.06 ± 3.30 | 195 to 197
CC1=C(CC(=O)N/N=C\c2ccccc2)c2cc(F)ccc2/C1=C\c1ccc([S+](C)[O-])cc1 (stereo not drawn) [Compound 3] | 67.40 ± 9.25 | 138 to 140
COc1ccc(/C=N\NC(=O)CC2=C(C)/C(=C/c3ccc([S+](C)[O-])cc3)c3ccc(F)cc32)c(OC)c1 (stereo not drawn) [Compound 13, N′-(2,4-dimethoxybenzylidene)-2-((1Z)-1-(4-(methylsulfinyl)benzylidene)-5-fluoro-2-methyl-1H-inden-3-yl)acetohydrazide] | 23.07 ± 6.95 | 185 to 187
